Assay [1] deals with T1, glucocorticoid receptor (GR) (Rattus norvegicus, UniProt P06536).
T1 construct: host or cells: T47D (A1-2)
T1 sequence (P06536 1-795): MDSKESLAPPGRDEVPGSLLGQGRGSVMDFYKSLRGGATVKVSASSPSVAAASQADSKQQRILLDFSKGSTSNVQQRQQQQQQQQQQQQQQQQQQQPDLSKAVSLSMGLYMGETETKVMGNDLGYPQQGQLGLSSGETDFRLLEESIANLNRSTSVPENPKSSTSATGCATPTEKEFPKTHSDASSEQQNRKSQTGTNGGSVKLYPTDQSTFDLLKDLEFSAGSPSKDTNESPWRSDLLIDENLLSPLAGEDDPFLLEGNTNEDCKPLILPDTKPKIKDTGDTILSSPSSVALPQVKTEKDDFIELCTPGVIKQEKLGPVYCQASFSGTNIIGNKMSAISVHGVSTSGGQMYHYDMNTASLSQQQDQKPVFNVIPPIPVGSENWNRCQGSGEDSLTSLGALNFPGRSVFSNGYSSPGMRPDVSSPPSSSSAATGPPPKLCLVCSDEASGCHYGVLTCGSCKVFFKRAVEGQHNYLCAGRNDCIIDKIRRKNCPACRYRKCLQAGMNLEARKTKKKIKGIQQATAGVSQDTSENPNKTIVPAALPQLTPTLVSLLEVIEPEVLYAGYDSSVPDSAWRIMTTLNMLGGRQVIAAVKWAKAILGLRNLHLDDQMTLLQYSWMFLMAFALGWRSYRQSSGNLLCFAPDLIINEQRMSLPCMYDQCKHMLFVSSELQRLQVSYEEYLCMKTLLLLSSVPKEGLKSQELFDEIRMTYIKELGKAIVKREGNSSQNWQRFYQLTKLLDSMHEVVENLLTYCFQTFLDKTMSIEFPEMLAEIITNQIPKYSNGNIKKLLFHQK
Nature of the assay: GR-mediated induction of transcription by dexamethasone in T47D (A1-2) cells (luciferase reporter and endogenous alkaline phosphatase). The assay is classed as cell-based, human. Conditions: T47D, dexamethasone 1.0 nM, read-out: % Inhibition of GR Induction. The source says:
(§1) The engineered T47D breast cancer cell lines employed for the assessment of flavonoid activity on glucocorticoid receptor (GR) and progesterone receptor (PR) signaling permitted the facile quantitation transcription of both an endogenous gene and a stably integrated reporter gene. […] The T47D K5pLuc cell line responds to progestins via induction of a stably integrated cytokeratin 5-luciferase reporter gene. […] For assessment of the effect of the test compounds on androgen receptor (AR) signaling, we used the HeLa13 cell line engineered to stably express human AR and a PSA-luciferase reporter gene containing a 4× multimerized PSA upstream enhancer ARE1 linked to the E4 TATA box and luciferase gene.
For assessment of the effect of flavones on glucocorticoid receptors, T47D (A1-2) cells were maintained in Minimal Essential Medium, 10% Fetal Bovine Serum (FBS), 0.2 mg/mL G418, penicillin (100 U/mL), and streptomycin (100 μg/mL). For experiments, medium was removed, and cultures rinsed with Phosphate-Buffered Saline (PBS) + 1.0 mM EDTA (PBSE), detached with trypsin, pelleted, and resuspended in medium to a concentration of 500,000 cells/mL. Aliquots of cell suspension, 100 microliters/well, were transferred into a 96-well, white, flat-bottomed plate and allowed to attach for 24 h. The following day, each well was treated with a 50 microliter aliquot of a test compound diluted in medium. Controls received medium containing DMSO diluted in the same way. For hormone treatment, dexamethasone was diluted in medium and added as 50 microliter aliquots so that the final volume in each well was 200 microliters. The final concentration of dexamethasone was 1.0 nM. Controls received medium without hormone. Hormone treatment was for 20 h at which time cells were harvested for assay of alkaline phosphatase and luciferase.
(§2) For all cell lines, cell harvesting and the luminescence assay for alkaline phosphatase and/or luciferase were performed as previously described in detail. Each condition was performed in quadruplicate. […] Percent inhibition is 100 minus the percent induction.

Assay [2] concerns estrogen receptor (ER). Nature of the assay: ER-mediated luciferase reporter induction in T47D KBluc cells. The settings on record: for % ER Induction: relative to 1nM estradiol. The assay is classed as cell-based, human. As to the method:
Experiments testing the effect of flavonoids on estrogen receptor-mediated transcription employed T47D KBluc cells. These cells were maintained in RPMI medium with 10% FBS, penicillin (100 U/mL), and streptomycin (100 μg/mL). For reporter gene experiments, cells were detached as above and replated at 50% confluency in phenol red-free RPMI media with 10% charcoal-stripped FBS and antibiotics (day one). All subsequent steps used phenol red-free medium and trypsin. On day three, the medium was replaced with fresh medium. On day five, cells were washed with PBSE, detached, resuspended, diluted, and replated in the phenol red-free RPMI with charcoal-stripped serum (50,000 cells per well as above).
as §2

Assay [3] concerns the target T2, human AR (Homo sapiens, UniProt P10275).
T2 construct: expressed in transfected cells; host or cells: HeLa13 (HeLa 13)
T2 sequence (P10275 1-920): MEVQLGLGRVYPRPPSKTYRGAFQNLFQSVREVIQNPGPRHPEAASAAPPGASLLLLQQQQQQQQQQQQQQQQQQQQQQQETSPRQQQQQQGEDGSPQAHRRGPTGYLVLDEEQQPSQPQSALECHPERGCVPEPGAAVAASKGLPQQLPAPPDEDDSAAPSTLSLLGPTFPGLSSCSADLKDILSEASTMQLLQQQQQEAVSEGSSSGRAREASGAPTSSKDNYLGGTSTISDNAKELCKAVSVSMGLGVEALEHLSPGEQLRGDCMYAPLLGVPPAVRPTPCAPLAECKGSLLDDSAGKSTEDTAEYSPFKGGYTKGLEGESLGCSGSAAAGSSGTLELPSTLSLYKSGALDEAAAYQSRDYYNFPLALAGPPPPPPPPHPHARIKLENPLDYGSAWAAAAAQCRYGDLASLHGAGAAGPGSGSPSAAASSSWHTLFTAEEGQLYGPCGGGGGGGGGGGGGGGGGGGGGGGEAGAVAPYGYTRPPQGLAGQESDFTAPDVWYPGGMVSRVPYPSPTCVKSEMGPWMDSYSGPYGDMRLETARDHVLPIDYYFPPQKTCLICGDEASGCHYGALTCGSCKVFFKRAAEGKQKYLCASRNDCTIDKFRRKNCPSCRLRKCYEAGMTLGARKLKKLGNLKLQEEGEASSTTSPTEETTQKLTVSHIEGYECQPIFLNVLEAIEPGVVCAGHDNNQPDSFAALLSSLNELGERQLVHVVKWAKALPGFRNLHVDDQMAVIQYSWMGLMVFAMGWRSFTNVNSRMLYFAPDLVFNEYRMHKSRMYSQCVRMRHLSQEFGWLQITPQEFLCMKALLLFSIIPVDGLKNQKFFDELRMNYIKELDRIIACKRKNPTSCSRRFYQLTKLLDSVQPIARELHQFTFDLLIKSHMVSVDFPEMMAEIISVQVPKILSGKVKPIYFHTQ
Nature of the assay: AR-mediated induction of PSA-luciferase reporter by R1881 in HeLa13 cells. The assay is classed as cell-based. The settings on record: for inhibition at 1 µM / inhibition at 4 µM: read-out: % Inhibition of AR-Mediated Gene Induction.
Description: as §1
Experiments testing the effect of flavonoid on androgen receptor-mediated transcription employed HeLa 13 cells maintained in MEM medium supplemented with 10% FBS, 0.5 mg/mL G418, 0.05 mg/mL Hygromycin B, […], and streptomycin (100 μg/mL). For reporter gene experiments, cells were replated at a 1:5 dilution in MEM medium with 5% charcoal-stripped FBS and the antibiotics mentioned above. The medium was changed the next day. After 48 h, the cells were washed with PBSE, detached with phenol red-free trypsin, pelleted, resuspended and plated in 96 well plates as above. Hormone and flavonoid treatments were performed as described above with the HeLa 13 medium and charcoal-stripped FBS. When treated with hormone, the synthetic androgen, R1881, was used at 1.0 nM. Hormone treatment was for 20 h at which time cells were harvested for assay of luciferase.
as §2

In assay [4] the target is T3, progesterone receptor (PR) (Homo sapiens, UniProt P06401).
T3 sequence (P06401 679-933 limits assumed): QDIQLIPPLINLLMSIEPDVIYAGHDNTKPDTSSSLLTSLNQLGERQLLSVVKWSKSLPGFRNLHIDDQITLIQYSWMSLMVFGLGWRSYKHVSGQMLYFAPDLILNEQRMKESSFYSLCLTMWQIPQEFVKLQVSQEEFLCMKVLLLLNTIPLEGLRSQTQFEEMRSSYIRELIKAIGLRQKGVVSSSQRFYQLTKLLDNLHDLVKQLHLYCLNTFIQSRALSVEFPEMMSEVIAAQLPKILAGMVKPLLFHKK
Nature of the assay: PR-mediated induction of transcription by R5020 in T47D K5pLuc cells (luciferase reporter and endogenous alkaline phosphatase). The assay is classed as cell-based. The settings on record: T47D, R5020 1.0 nM.
Description: as §1
Experiments testing the effect of flavonoids on progesterone receptor-mediated transcription employed T47D K5pluc cells. The protocol was the same as that for T47D (A1-2) cells except the medium was Dulbecco’s Modified Eagle’s Medium supplemented with 10% FBS, insulin (10 nM), puromycin 200 ng/mL, nonessential amino acids, penicillin (100 U/mL), and streptomycin (100 μg/mL). When treated with hormone, the synthetic progestin, R5020, was used at 1.0 nM. Hormone treatment was for 20 h at which time cells were harvested for assay of alkaline phosphatase and luciferase.
as §2

Consider 12 compounds from paper PMC11940309, “Endocrine-Disrupting Activities of Flavones on Steroid Receptors: Structural Requirements and Synthesis of Novel Flavone with Improved Estrogenic Activity” (Biomedicines, 2025).

“And” between values parts separate entries of the source, which are not always exact repeats. Identical values can stand only once. Like-named read-outs stand apart in the source and are kept apart here.

For the compound `O=c1cc(-c2ccc(O)cc2)oc2cc(O)cc(O)c12` [5,7,4′-trihydroxyflavone], the inhibition at 4 µM in assay [1] (AP (alkaline phosphatase)) is -19%; in assay [1] (LUC (luciferase)), 6%. Also, the values for the inhibition at 8 µM in assay [1] (AP (alkaline phosphatase)) and in assay [1] (LUC (luciferase)) were 49% and 35%, respectively.

Turning to `COc1cccc2oc(-c3ccc(O)cc3)cc(=O)c12` [5-methoxy,4′-hydroxyflavone], the “% ER Induction” value in assay [2] (1 µM) was −2%; in assay [2] (4 µM), 10%. Also, the inhibition at 1 µM in assay [3] (1 µM, R1881 1.0 nM) is -4%. Further, the inhibition at 4 µM in assay [3] (4 µM, R1881 1.0 nM) is 34%.

For `Cc1c(-c2ccc(O)cc2)oc2ccc(O)cc2c1=O` [compound 8, 3-methyl 6,4′-dihydroxyflavone], the “increase of EC50 relative to 6,4′-dihydroxyflavone” value in assay [2] is given as “ten-fold or more”. The “reporter gene activity compared with an optimal dose of estradiol” value in assay [2] (1.0 micromolar) is “super-inducer”.

Consider `O=C1CC(c2ccccc2)Oc2ccc(O)cc21` (stereo not shown) [6-hydroxyflavanone], for which the “% ER Induction” value is reported as 15% in assay [2] (1 µM) and 111% in assay [2] (4 µM). Further, the inhibition at 1 µM in assay [3] (1 µM, R1881 1.0 nM) is -8%. In addition, the inhibition at 4 µM in assay [3] (4 µM, R1881 1.0 nM) is 22%.

Turning to `COc1ccc2oc(-c3ccc(O)cc3)cc(=O)c2c1` [6-methoxy,4′-hydroxyflavone], the “% ER Induction” value in assay [2] (1 µM) is given as 129%; in assay [2] (4 µM), 167%. The inhibition at 1 µM in assay [3] (1 µM, R1881 1.0 nM) stood at 27%. For the same compound, the inhibition at 4 µM in assay [3] (4 µM, R1881 1.0 nM) was 49%.

In the case of `COc1ccc(-c2cc(=O)c3c(OC)cccc3o2)cc1` [5,4′-methoxyflavone], the “% ER Induction” value is reported as 1% in assay [2] (1 µM) and 31% in assay [2] (4 µM). In addition, the “% Inhibition of AR-Mediated Gene Induction” value in assay [3] (1 µM, R1881 1.0 nM) amounted to 4%; in assay [3] (4 µM, R1881 1.0 nM), 53%.

`O=C1CC(c2ccc(O)cc2)Oc2ccccc21` (stereo not shown) [4′-hydroxyflavanone]: the “% ER Induction” value in assay [2] (1 µM) was found to be 12%. In addition, the “% ER Induction” value in assay [2] (4 µM) is on record as 109%. Further, in assay [3], the inhibition at 1 µM was -8% and the inhibition at 4 µM came to 0%.

As for `O=c1c(O)c(-c2ccc(O)c(O)c2)oc2cc(O)cc(O)c12` [3,5,7,3′,4′-pentahydroxyflavone], the inhibition at 4 µM was found to be 52% in assay [4] (AP (alkaline phosphatase)) and 47% in assay [4] (LUC (luciferase)). For the same compound, the inhibition at 8 µM in assay [4] (AP (alkaline phosphatase)) turned out to be 79%; in assay [4] (LUC (luciferase)), 78%. Also, the “% ER Induction” value in assay [2] (1 µM) is reported as 3%; in assay [2] (4 µM) it was 12%.

With `O=c1c(O)c(-c2ccc(O)cc2)oc2cc(O)ccc12` [3,7,4′-trihydroxyflavone], the “% ER Induction” value in assay [2] (1 µM) is 86%; in assay [2] (4 µM), 114%. In assay [3] (1 µM, R1881 1.0 nM), the inhibition at 1 µM is -6%. Also, the inhibition at 4 µM in assay [3] (4 µM, R1881 1.0 nM) turned out to be 39%.

With `O=c1c(F)c(-c2ccc(O)cc2)oc2ccc(O)cc12` [compound 14, 3-fluoro, 6,4′-dihydroxyflavone], the “EC50 compared to that of genistein” value in assay [2] is listed as “comparable”. In addition, the EC50 in assay [2] (read-out: EC50, estrogen agonist) was ~30 nM and 30 to 100 nM.

Regarding `C[C@]12CC[C@@H]3c4ccc(O)cc4CC[C@H]3[C@@H]1CC[C@@H]2O` [17β-estradiol], the “potency relative to the 6,4′-dihydroxyflavones” value in assay [2] (in the assays used here) is recorded as “over 1000 fold”.

Turning to `O=c1cc(-c2ccccc2)oc2cccc(O)c12` [5-hydroxyflavone], the inhibition at 4 µM in assay [4] (AP (alkaline phosphatase)) is 26%; in assay [4] (LUC (luciferase)) it was -23%; in assay [1] (AP (alkaline phosphatase)) it was 38%; in assay [1] (LUC (luciferase)), -9%. The inhibition at 8 µM in assay [4] (AP (alkaline phosphatase)) is 61%; in assay [4] (LUC (luciferase)), 45%; in assay [1] (AP (alkaline phosphatase)), 12%; in assay [1] (LUC (luciferase)), -30%. Besides, the results for the “% ER Induction” value in assay [2] (1 µM) and in assay [2] (4 µM) were 0% and 4%, respectively.
